Experimental data reported in patent EP0366632A1, “Alternative energy substrates” (priority 1988, dated 1990).
Several values for one entry are separate records, joined by “and”; a condition that tells them apart may be missing. Identical values can stand only once. Entries after “also recorded” stand apart in the source; their conditions may differ.

Columns and labels:
[1] = Cold storage of fat emulsion (Intralipid) with ester admixture: visual inspection, pH, mean particle size; type: physicochemical; settings: for emulsion stability, daily visual inspection: Example 34: pure ester in 20 percent fat emulsion
[2] = as above; type: physicochemical; settings: for emulsion quality (oil droplets, creaming, oil separation), daily inspection: Example 5: mother concentrate in Intralipid 10%; for emulsion quality (oil droplets, creaming, oil separation), daily inspection / emulsion stability, daily visual inspection: +5°C; for emulsion quality (oil droplets, creaming, oil separation), daily inspection / emulsion quality, daily visual inspection / emulsion stability, daily visual inspection: 5 days; for emulsion quality, daily visual inspection: 5°C
Protocol: A so-called mother concentrate was prepared by dissolving 6 g of egg-yolk phospholipids in 40 g of 4-methyl-3-oxo-pentanoic acid ethyl ester at +60°C, while stirring. 34 g of 99% ethyl alcohol were then added to the solution, whereafter the solution was cooled to room temperature and dispensed into 20 ml glass flasks. Nitrogen gas was then bubbled through the liquid and the flasks then stoppered and capsuled. The bottles were then autoclaved at +120°C and at 118 kPa for 20 minutes. A 10% fat emulsion for parenteral nutrient administration (Intralipid^R retailed by KabiVitrum AB, Stockholm) was added to the preparation under strict asceptic conditions, to a 4-methyl-3-oxo-pentanoic acid ethyl ester concentration of 0.2, 1 and 3% respectively. The emulsion was shaken for 5 minutes in a shaking machine and then placed in a cold environment (+5°C). The emulsion was thereafter observed over a 5 day period, wherewith a daily inspection was carried out to assess the formation of oil droplets, creaming or oil separation. The assessment was made in comparison with a known emulsion for parenteral use (Intralipid^R 10%). […] Subsequent to 5 days storage, an analysis was made of the pH and mean particle size in a Coulter nanosizer. The following values were obtained:
(§1) A so-called mother concentrate produced by dissolving 6 g egg-yolk phospholipids in 40 g of 4-methyl-3-oxo-pentanoic acid-ethyl ester at +60°C, while stirring the system. 34 g of 99% ethyl alcohol were then added to the solution, whereafter the solution was cooled to room temperature and dispensed into 20 ml glass flasks. Nitrogen gas was perculated through the contents of the flasks, and the flasks subsequently stoppered and fitted with capsules. The flasks were then autoclaved at 120°C and 118 kPa over a period of 20 minutes. This preparation was added to a 20% fat emulsion (Intralipid^R) under strict aseptic conditions, such that the concentation of 4-methyl-3-oxo-pentanoic acid ethyl ester was 0.2 and 1 and 3% respectively. The emulsion was shaken for 5 minutes in a shaker and then placed in a cold environment (5°C). The emulsion was inspected over a period of 5 calender days, wherewith a visual inspection was carried out daily in order to ascertain the occurrence of any oil droplets that may form, creaming or oil separation. The assay was effected by comparison with a known emulsion for parenteral use (Intralipid^R 20%). […] The pH of the emulsion was measured after a 5 day storage period. The mean particle size was measured in a Coulter^R nanosizer. The following values were obtained:
as §1, with “prepara tion” for “preparation”, “10%” for “20%”, “10%).” for “20%).”, “obtained: […]” for “obtained:”

[3] = system: Escherichia coli ATCC 8739; assay: Microorganism count in ester emulsions diluted with phosphate buffer, albumin solution or TSB (Example 16); type: cell-based
Protocol: The emulsions contained egg-yolk phospholipid 1,2% and sterile water in addition to ester. The emulsions were prepared aseptically, by emulsifying sterile-filtered ester with a sterilized dispersion of egg-yolk phospholipids.
Aliquots of these emulsions were diluted at a ratio of 1 to 10 with phosphate buffer (0.01 M, pH=7.0), seruma albumin solution 20% and Tryptone soya broth (TSB) respectively. Escherichia coli ATCC 8739 were added to the emulsions. The emulsions were then incubated for 20 hours at +37°C. The microorganism count was carried out after 1-5 minutes, 2 hours and 20 hours, in the manner described in microbiological literature. Parallel with the above tests, there was made a control of phosphate buffer and TSB with additions of Escherichia coli ATCC 8739. The latter substrate was tested to ascertain whether or not the microorganisms were viable. […] The starting concentration was about 10⁴. In the samples containing 4-methyl-3-oxo-pentanoic acid ethyl ester, the combination with phosphate buffer was 0 after 5 minutes, 0 after 2 hours and 0 after 20 hours. In the combination with 20% albumin solution, the microorganism count was 0 after 5 minutes, no count was taken after 2 hours, and 0 after 20 hours. […], the count in the combination with TSB was 0, no count was taken after 2 hours, and 0 after 20 hours.
In the samples containing 5-methyl-3-oxo-hexanoic acid ethyl ester, the count in the combination with phosphate buffer was 10 after 5 minutes, 0 after 2 hours, and 0 after 20 hours. The combination with 20% albumin solution was 10² after 5 minutes, no count was taken after 2 hours, and 0 after 20 hours. In the combination with TSB, the count was 10 after 5 minutes, no count was taken after 2 hours, and 0 after 20 hours. […] All microorganisms were eliminated within 20 hours by both esters at the same low concentration.

[4] = Example 5: Intralipid 10%, 0.2% admix, after 5 days storage
[5] = Example 5: Intralipid 10%, 1% admix, after 5 days storage
[6] = Example 5: Intralipid 10%, 3% admix, after 5 days storage
[7] = Example 30: Intralipid 20%, 0.2% admix
[8] = Example 30: Intralipid 20%, 1% admix
[9] = Example 30: Intralipid 20%, 3% admix
[10] = Example 31: Intralipid 10%, 0.2% admix
[11] = Example 31: Intralipid 10%, 1% admix
[12] = Example 31: Intralipid 10%, 3% admix
[13] = Example 31: Intralipid 10%, 5% admix

CCOC(=O)CC(=O)C(C)C [4-methyl-3-oxo-pentanoic acid ethyl ester]
emulsion quality (oil droplets, creaming, oil separation), daily inspection ([1]; Example 5: mother concentrate in Intralipid 10%, 0.3% addition, +5°C, 5 days): had no affect on the quality | pH ([1]; Example 34: 20 percent fat emulsion, 3% emulsion, end of 5-day period (reference emulsion pH=7.9)): 5.6 | emulsion stability, daily visual inspection ([1]; 0.1% admixture, +5°C, 5 days): remained stable over the whole of the test period | emulsion stability, daily visual inspection ([1]; 3% admixture, +5°C, 5 days): remained stable for four days | Mean particle size (single readings, Coulter nanosizer) [2, 4]: 258 and 264 and 267 and 250 | Mean particle size, X [2, 4]: 261 | pH [2, 4]: 7.2 | Mean particle size (single readings, Coulter nanosizer) [2, 5]: 245 and 253 and 250 and 235 and 242 | Mean particle size, X [2, 5]: 246 | pH [2, 5]: 7.0 | Mean particle size (single readings, Coulter nanosizer) [2, 6]: 264 and 258 and 248 and 250 | Mean particle size, X [2, 6]: 258 | pH [2, 6]: 6.8 | emulsion quality (oil droplets, creaming, oil separation), daily inspection ([2]; 1% addition): had no affect on the quality | emulsion quality (oil droplets, creaming, oil separation), daily inspection ([2]; 3% addition): fully acceptable, but deteriorated slowly during day 4 and 5 | Mean particle size (single readings, Coulter nanosizer) [2, 7]: 325 and 316 and 320 and 327 | Mean particle size, X [2, 7]: 323 | pH ([2]; Example 30: Intralipid 20%, 0.2% admix, after 5 day storage): 7.3 | Mean particle size (single readings, Coulter nanosizer) [2, 8]: 323 and 327 and 329 and 319 and 336 | Mean particle size, X [2, 8]: 326 | pH ([2]; Example 30: Intralipid 20%, 1% admix, after 5 day storage): 6.9 | Mean particle size (single readings, Coulter nanosizer) [2, 9]: 322 and 319 and 320 and 333 | Mean particle size, X [2, 9]: 323 | pH ([2]; Example 30: Intralipid 20%, 3% admix, after 5 day storage): 6.5 | emulsion quality, daily visual inspection ([2]; Example 30: mother concentrate in Intralipid 20%, 0.2% addition): No change in quality | emulsion quality, daily visual inspection ([2]; Example 30: mother concentrate in Intralipid 20%, 1% addition): No change in quality | emulsion quality, daily visual inspection ([2]; Example 30: mother concentrate in Intralipid 20%, 3-percent mixture): fully acceptable over the first 3 days | Mean particle size (single readings, Coulter nanosizer) [2, 10]: 241 and 239 and 246 | Mean particle size, X [2, 10]: 241 | pH ([2]; Example 31: Intralipid 10%, 0.2% admix, after 5 day storage): 7.3 | Mean particle size (single readings, Coulter nanosizer) [2, 11]: 244 and 249 and 246 and 251 | Mean particle size, X [2, 11]: 247 | pH ([2]; Example 31: Intralipid 10%, 1% admix, after 5 day storage): 6.9 | Mean particle size (single readings, Coulter nanosizer) [2, 12]: 249 and 246 and 240 and 236 and 243 | Mean particle size, X [2, 12]: 243 | pH ([2]; Example 31: Intralipid 10%, 3% admix, after 5 day storage): 6.7 | Mean particle size (single readings, Coulter nanosizer) [2, 13]: 244 and 252 and 254 | Mean particle size, X [2, 13]: 251 | pH ([2]; Example 31: Intralipid 10%, 5% admix, after 5 day storage): 6.7 | emulsion quality, daily visual inspection ([2]; Example 31: mother concentrate in Intralipid 10%, 0.2% addition): No change in quality | emulsion quality, daily visual inspection ([2]; Example 31: mother concentrate in Intralipid 10%, 1% addition): No change in quality | emulsion quality, daily visual inspection ([2]; Example 31: mother concentrate in Intralipid 10%, 3% addition): No change in quality; also recorded: fully acceptable over the first 3 days | pH ([2]; Example 34: 20 percent fat emulsion, 5% emulsion, end of 5-day period (reference emulsion pH=7.9)): 5.0 | emulsion stability, daily visual inspection ([2]; Example 34: pure ester in 10% fat emulsion (Intralipid), 0.2%): stable over the whole of the test period | emulsion stability, daily visual inspection ([2]; Example 34: pure ester in 10% fat emulsion, 1%): stable over the whole of the test period | emulsion stability, daily visual inspection ([2]; Example 34: pure ester in 10% fat emulsion, 3%): stable over the whole of the test period | emulsion stability, daily visual inspection ([2]; Example 34: pure ester in 10% fat emulsion, 5%): stable over the whole of the test period; also recorded: stable over the first 2 days | emulsion stability, daily visual inspection ([2]; Example 34: pure ester in 20 percent fat emulsion, 1% admixture): remained stable over the whole of the test period | emulsion stability, daily visual inspection ([2]; Example 34: pure ester in 20 percent fat emulsion, 5% admixture): remained stable for 2 days | microorganism count ([3]; 20% emulsion diluted 1 to 10 with phosphate buffer, after 5 minutes, starting concentration about 10⁴): 0 | microorganism count ([3]; diluted 1 to 10 with 20% albumin solution, after 5 minutes): 0 | microorganism count ([3]; diluted 1 to 10 with 20% albumin solution, after 20 hours): 0 | microorganism count ([3]; diluted 1 to 10 with TSB, after 4 hours): 0 | microorganism count ([3]; diluted 1 to 10 with TSB, after 20 hours): 0 | microorganism count ([3]; diluted 1 to 10 with phosphate buffer, after 2 hours): 0 | microorganism count ([3]; diluted 1 to 10 with phosphate buffer, after 20 hours): 0
